In patent publication US20130131018A1, “SUBSTITUTED ISOQUINOLINES AND THEIR USE AS TUBULIN POLYMERIZATION INHIBITORS” (Exonhit S.A., priority 2010, published 2013):
Structures can show the parent of a compound that is named as a salt. Where two headings read alike, the source gives them in different places.

Columns and labels:
[1] = system: HUVEC; assay: Pre-established vessels disruption (capillary tubes on Matrigel); format: cell-based; details: HUVEC tubes formed 5 hours, then compounds overnight
Protocol: To explore the effect of the compounds on pre-established vasculature, twenty thousand cells (HUVEC) were seeded and incubated over Matrigel for 5 hours to allow the capillary tubes to form. Then, compounds were added and incubated overnight. The disappearance of existing vasculature was monitored with fluorescent microscopy.

[2] = system: K562 cell line; assay: MTT assay: cytotoxicity against the K562 cell line; format: cell-based; details: K562 cells, 72 h, growth inhibition
Protocol: Assessment of Cell Viability via MTT Assay: Cytotoxicity of compounds against the K562 cell line was assessed using the [3-(4,5-dimethylthiazol-2-yl)-2,5-diphenyl tetrazolium bromide] (MTT) assay. Fifteen thousand tumor cells were seeded into wells of flat-bottomed 96-well plates. An amount of 2 μL of a dilution series of each compound dissolved in DMSO was added to 198 μL of appropriate growth medium at three replicates per concentration and the plates were incubated in a 5% CO2 incubator at 37° C. After 72 h, the number of metabolically active cells was determined by MTT assay. Absorbance of each well was measured at 550 nm on a Tecan Sunrise reader. Dose-response curves for growth inhibition were generated as a percentage of untreated control. IC50 was determined by nonlinear regression (Prism, Graph Pad Software, Inc.).

[3] = target: T1, colchicine site on tubulin (biotinylated porcine tubulin) (Sus scrofa, UniProt P02550+P02554); assay: Tubulin displacement assay (3H-colchicine radioligand binding, SPA)
T1 construct: biotin (chemical label)
Protocol: The assay was developped following the method published by Tahir et al. (2001) and others using biotinylated porcine tubulin captured to streptavidin coated yttrium silicate scintillation proximity assay (YSi SPA) beads in a PIPES/EGTA/MgCl2/GTP buffer. […] IC50s were determined using GraphPad Prism Version 5.01 and the sigmoidal dose response with variable slope curve fit.

[4] = target: T2, purified tubulin (Sus scrofa, UniProt P02550+P02554); assay: Tubulin polymerisation assay (CytoDYNAMIX Screen kit, absorbance at 340 nm); format: biochemical; details: for inhibition at 5 µM / % Inhibition of tubulin polymerization at 5 μM: 5 μM compound, 4 mg/ml tubulin; for inhibition at 5 µM: read-out: % Inhibition of tubulin polymerization at 5 μM; for IC50: tubulin polymerization
T2 construct: purchased Cytoskeleton #BK006P
Protocol: The polymerization of purified tubulin was monitored spectrophotometrically by the change in absorbance at 340 nm using the CytoDYNAMIX Screen kit (#BK006P, Cytoskeleton) according to the instructions of the manufacturer. […] The absorbance was measured at 1 minute intervals for 60 minutes. The test compound was added to a 4 mg/ml tubulin solution containing 10% glycerol and 1 mM GTP in Buffer 1 (Buffer 1: 80 mM PIPES; 2 mM MgCl2; 0.5 mM EGTA, pH 6.9). Increased absorbance indicates increase in microtubule formation from tubulin heterodimers.

[5] = system: Endothelial cells (HUVEC); assay: Neovessels formation inhibition (capillary tube formation on Matrigel); format: cell-based
Protocol: The capability of compounds to inhibit the formation of capillaries was evaluated in vitro. Twenty thousand Endothelial cells (HUVEC) were placed on a Matrigel matrix and allowed to form capillary tubes in the presence or absence of the compounds overnight. The cells were stained with calcein AM, and the effect of the compounds on capillary tube formation was assessed using an inverted fluorescent microscope (Nikon). The reference compound used in this assay AVE-8063 is 3-amino-deoxycombretastatin A-4.

[6] = Homo sapiens, read-out: Pre-established Vessels Disruption Number of Branch Junctions IC50
[7] = Homo sapiens, read-out: Pre-established Vessels Disruption Total Tubule Length IC50
[8] = competition with 50 nM [3H]-colchicine, 4 h at 37° C., read-out: IC50
[9] = Homo sapiens, HUVEC on Matrigel, compounds overnight, read-out: Neovessels Formation Inhibition Number of Branch Junctions IC50
[10] = Homo sapiens, HUVEC on Matrigel, compounds overnight, read-out: Neovessels Formation Inhibition Total Tubule Length IC50
[11] = read-out: Pre-established Vessels Disruption Number of Branch Junctions IC50
[12] = read-out: Pre-established Vessels Disruption Total Tubule Length IC50
[13] = HUVEC on Matrigel, compounds overnight, read-out: Neovessels Formation Inhibition Number of Branch Junctions IC50
[14] = HUVEC on Matrigel, compounds overnight, read-out: Neovessels Formation Inhibition Total Tubule Length IC50

T1 sequence (P02554 whole entry): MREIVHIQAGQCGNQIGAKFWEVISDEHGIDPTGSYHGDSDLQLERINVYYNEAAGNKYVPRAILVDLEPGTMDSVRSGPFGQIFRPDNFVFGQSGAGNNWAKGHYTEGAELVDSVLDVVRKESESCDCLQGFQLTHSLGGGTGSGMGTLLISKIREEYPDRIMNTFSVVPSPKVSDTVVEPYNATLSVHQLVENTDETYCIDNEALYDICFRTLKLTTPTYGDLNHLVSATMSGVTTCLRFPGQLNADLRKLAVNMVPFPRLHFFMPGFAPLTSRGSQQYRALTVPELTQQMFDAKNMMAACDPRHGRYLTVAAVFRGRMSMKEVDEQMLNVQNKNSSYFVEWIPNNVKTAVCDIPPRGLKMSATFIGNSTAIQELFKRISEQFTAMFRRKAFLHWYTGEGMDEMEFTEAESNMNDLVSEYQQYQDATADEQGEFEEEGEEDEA
T1 sequence (P02550 whole entry): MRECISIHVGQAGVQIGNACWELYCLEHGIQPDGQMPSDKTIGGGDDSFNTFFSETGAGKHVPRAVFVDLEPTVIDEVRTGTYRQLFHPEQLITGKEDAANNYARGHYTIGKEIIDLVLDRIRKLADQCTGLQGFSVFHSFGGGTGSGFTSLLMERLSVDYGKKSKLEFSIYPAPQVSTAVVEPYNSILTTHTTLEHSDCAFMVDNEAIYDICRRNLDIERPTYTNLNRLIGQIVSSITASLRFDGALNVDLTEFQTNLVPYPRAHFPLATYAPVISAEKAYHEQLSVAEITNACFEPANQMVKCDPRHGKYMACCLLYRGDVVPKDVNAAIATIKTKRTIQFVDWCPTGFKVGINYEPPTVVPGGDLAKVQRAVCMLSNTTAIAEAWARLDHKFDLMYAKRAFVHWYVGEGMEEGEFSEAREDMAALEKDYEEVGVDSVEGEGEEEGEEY
T2 sequence (P02554 whole entry): as the sequence (P02554 whole entry) above
T2 sequence (P02550 whole entry): as the sequence (P02550 whole entry) above

Row | IC50 [3, 8] [nM] | inhibition at 5 µM [4] [%] | % Inhibition of tubulin polymerization at 5 μM [4] [%] | IC50 [4] [nM] | SMILES | IC50 [1, 6] [nM] | IC50 [1, 7] [nM] | IC50 ([2]; Homo sapiens) [nM] | IC50 [5, 9] [nM] | IC50 [5, 10] [nM] | IC50 [1, 11] [nM] | IC50 [1, 12] [nM] | IC50 [2] [nM] | IC50 [5, 13] [nM] | IC50 [5, 14] [nM] | IC50 [3] [nM] | IC50 ([5]; Homo sapiens, HUVEC, read-out: Neovessels Formation Inhibition Number of Branch Junctions IC50 (nM)) [nM] | IC50 ([5]; Homo sapiens, HUVEC, read-out: Neovessels Formation Inhibition Total Tubule Length IC50 (nM)) [nM]
1 | 91.9 | 17 |  |  | CCOc1ccc2c(C(=O)c3cc(OC)c(OCC)c(OC)c3)cncc2c1OS(N)(=O)=O [Compound 57, 7-Ethoxy-4-(4-ethoxy-3,5-dimethoxybenzoyl)isoquinolin-8-yl sulfamate] | 4.37 | 6.72 | 2.69 | 2.65 | 3.97 |  |  |  |  |  |  |  | 
2 | 745 | 21.5 |  |  | CCOc1ccc2c(C(=O)c3cc(OC)c(OCC)c(OC)c3)cncc2c1NS(N)(=O)=O [Compound 59, 7-Ethoxy-4-(4-ethoxy-3,5-dimethoxybenzoyl)isoquinolin-8-yl sulfamide] | 27.1 | 38.2 | 7.04 | 8.32 | 25.2 |  |  |  |  |  |  |  | 
3 | 3300 | 54.5 |  |  | CCOc1ccc2c(C(=O)c3cc(OC)c(OC)c(OC)c3)cncc2c1OC(C)=O [Compound 96, 7-Ethoxy-4-(3,4,5-trimethoxybenzoyl)isoquinolin-8-yl acetate] | 9.14 | 15.3 | 5.85 | 5.07 | 8.1 |  |  |  |  |  |  |  | 
4 | 38.7 | 10 |  |  | CCCOc1c(OC)cc(C(=O)c2cncc3c(O)c(OCC)ccc23)cc1OC [Compound 67, (3,5-Dimethoxy-4-propoxyphenyl)(7-ethoxy-8-hydroxyisoquinolin-4-yl)methanone hydrochloride] | 9.18 | 12.6 | 4.64 | 3.84 | 4.8 |  |  |  |  |  |  |  | 
5 |  |  | 39.00 | 4100 | COc1cc(C(=O)c2c(C)oc3c(OP(=O)([O-])O)c(OC)ccc23)cc(OC)c1OC.[Na+] [BNC105P, reference compound] |  |  |  |  |  | 5.83 | 7.37 | 17.3 | 0.44 | 1.53 |  |  | 
6 |  |  | 64.75 | 1780 | COc1cc(C(=O)c2c(C)oc3c(O)c(OC)ccc23)cc(OC)c1OC [BNC105, reference compound] |  |  |  |  |  | 5.2 | 6.37 | 0.55 | 1.76 | 2.49 |  |  | 
7 |  | 61.9 |  | 1850 | CCCOc1c(OC)cc(Cc2cncc3c(O)c(OCC)ccc23)cc1OC [Compound 19, 4-(3,5-Dimethoxy-4-propoxybenzyl)-7-ethoxyisoquinolin-8-ol hydrochloride] | 6.33 | 15.9 | 21.5 | 14.4 | 23 |  |  |  |  |  |  |  | 
8 | 220 | 85 |  | 1190 | CCOc1ccc2c(Cc3cc(OC)c(OC)c(OC)c3)cncc2c1O [Compound 1, 4-(3,4,5-Trimethoxybenzyl)-7-ethoxyisoquinolin-8-ol hydrochloride] |  |  | 29.1 | 38.5 | 54.5 |  |  |  |  |  |  |  | 
9 | 170 | 76.6 |  | 1040 | CCOc1ccc2c(Cc3cc(OC)c(OC)c(OC)c3)cncc2c1N [Compound 3, 7-Ethoxy-4-(3,4,5-trimethoxybenzyl)isoquinolin-8-amine dihydrochloride] | 14.9 | 45.6 | 10.7 | 15.3 | 21.8 |  |  |  |  |  |  |  | 
10 |  | 65.1 |  | 1940 | CCOc1ccc2c(C(=O)c3cc(OC)c(OCC)c(OC)c3)cncc2c1O [Compound 56, (4-Ethoxy-3,5-dimethoxyphenyl)(7-ethoxy-8-hydroxyisoquinolin-4-yl)methanone hydrochloride] | 14.4 | 16.1 | 4.39 | 10.7 | 12.2 |  |  |  |  |  |  |  | 
11 |  | 38.2 |  | 3490 | CCOc1ccc2c(C(=O)c3cc(OC)c(OCC)c(OC)c3)cncc2c1N [Compound 58, (8-amino-7-ethoxyisoquinolin-4-yl)(4-ethoxy-3,5-dimethoxyphenyl)methanone hydrochloride] | 0.99 | 1.36 | 1.23 | 0.53 | 0.59 |  |  |  |  |  |  |  | 
12 |  | 77.7 |  | 1050 | CC[C@]1(O)C[C@@H]2CN(CCc3c([nH]c4ccccc34)[C@@](C(=O)OC)(c3cc4c(cc3OC)N(C)[C@H]3[C@@](O)(C(=O)OC)[C@H](OC(C)=O)[C@]5(CC)C=CCN6CC[C@]43[C@@H]65)C2)C1 [Vinblastine, reference compound] | 2.09 | 5.39 | 3.66 | 1.55 | 3.44 |  |  |  |  |  |  |  | 
13 | 1600 |  |  | 3440 | COc1cc(Cc2cncc3c(OC)c(OC)ccc23)cc(OC)c1OC [Compound 10, 4-(3,4,5-Trimethoxybenzyl)-7,8-dimethoxyisoquinoline hydrochloride] |  |  | 283 |  |  |  |  |  |  |  |  |  | 
14 |  | 79.5 |  | 900 | CCCOc1c(OC)cc(Cc2cncc3c(N)c(OCC)ccc23)cc1OC [Compound 64, 4-(3,5-Dimethoxy-4-propoxybenzyl)-7-ethoxyisoquinolin-8-amine dihydrochloride] | 7.41 | 14.7 | 11.2 | 7.02 | 9.54 |  |  |  |  |  |  |  | 
15 |  | 63.4 |  | 1500 | C=CCOc1c(OC)cc(Cc2cncc3c(O)c(OCC)ccc23)cc1OC [Compound 32, 4-(4-(Allyloxy)-3,5-dimethoxybenzyl)-7-ethoxyisoquinolin-8-ol hydrochloride] | 20 | 48.8 | 21.5 | 12.4 | 21.9 |  |  |  |  |  |  |  | 

Row | SMILES | IC50 [3, 8] [nM] | inhibition at 5 µM [4] [%] | % Inhibition of tubulin polymerization at 5 μM [4] [%] | IC50 [4] [nM] | IC50 [1, 6] [nM] | IC50 [1, 7] [nM] | IC50 ([2]; Homo sapiens) [nM] | IC50 [5, 9] [nM] | IC50 [5, 10] [nM] | IC50 [1, 11] [nM] | IC50 [1, 12] [nM] | IC50 [2] [nM] | IC50 [5, 13] [nM] | IC50 [5, 14] [nM] | IC50 [3] [nM] | IC50 ([5]; Homo sapiens, HUVEC, read-out: Neovessels Formation Inhibition Number of Branch Junctions IC50 (nM)) [nM] | IC50 ([5]; Homo sapiens, HUVEC, read-out: Neovessels Formation Inhibition Total Tubule Length IC50 (nM)) [nM]
16 | COc1ccc(/C=C\c2cc(OC)c(OC)c(OC)c2)cc1N [AVE8063, 3-amino-deoxycombretastatin A-4, reference compound] |  |  | 71.29 | 1070 |  |  |  |  |  | 5.72 | 7.74 | 2.71 | 3.12 | 5.33 |  |  | 
17 | CCOc1ccc2c(C(=O)c3cc(OC)c(OC)c(OC)c3)cncc2c1OP(=O)(O)O [Compound 98, 7-ethoxy-4-(3,4,5-trimethoxybenzoyl)isoquinolin-8-yl disodium phosphate] |  | 49 |  |  | 9.22 | 15.1 | 7.57 |  |  |  |  |  |  |  | 121 | 3.68 | 6.5
18 | COc1ccc(/C=C\c2cc(OC)c(OC)c(OC)c2)cc1NC(=O)[C@@H](N)CO [AVE8062, reference compound] |  | 59.8 |  | 1790 | 32.5 | 52.9 | 7.78 | 13.9 | 15.4 |  |  |  |  |  |  |  | 
19 | CCOc1ccc2c(Cc3cc(OC)c(OCC(C)C)c(OC)c3)cncc2c1O [Compound 20, 4-(4-Isobutoxy-3,5-dimethoxybenzyl)-7-ethoxyisoquinolin-8-ol hydrochloride] |  | 56.9 |  | 1520 | 22.3 | 31.7 | 20.8 | 24.9 | 31.9 |  |  |  |  |  |  |  | 
